Legend:
Experiment in all cases: Test E postemergence
fall panicum = format: in vivo, Panicum dichotomiflorum
Description: (§1) Seeds of plant species selected from corn (Zea mays), soybean (Glycine max), velvetleaf (Abutilon theophrasti), lambsquarters (Chenopodium album), wild poinsettia (Euphorbia heterophylla), palmer pigweed (Amaranthus palmeri), waterhemp (common waterhemp, Amaranthus rudis), surinam grass (Brachiaria decumbens), large (Lg) crabgrass (Digitaria sanguinalis), Brazilian crabgrass (Digitaria horizontalis), fall panicum (Panicum dichotomiflorum), giant foxtail (Setaria faberii), green foxtail (Setaria viridis), goosegrass (Eleusine indica), johnsongrass (Sorghum halepense), ragweed (common ragweed, Ambrosia elatior), barnyardgrass (Echinochloa crus-galli), sandbur (southern sandbur, Cenchrus echinatus), arrowleaf sida (Sida rhombifolia), Italian ryegrass (Lolium multiflorum), dayflower (Virginia (VA) dayflower, Commelina virginica), field bindweed (Convolvulus arvensis), morningglory (Ipomoea coccinea), nightshade (eastern black nightshade, Solanum ptycanthum), kochia (Kochia scoparia), yellow nutsedge (Cyperus esculentus), cocklebur (common cocklebur, Xanthium strumarium), smartweed (ladysthumb smartweed, and hairy beggarticks (Bidens pilosa), were planted into a silt loam soil and treated preemergence with test chemicals formulated in a non-phytotoxic solvent mixture which included a surfactant.
(§2) At the same time, plants from these crop and weed species and also horseweed (Canada horseweed, Conyza canadensis), waterhemp_RES1, (ALS & Triazine resistant common waterhemp, Amaranthus rudis), and waterhemp_RES2, (ALS & HPPD resistant common waterhemp, Amaranthus rudis) were planted in pots containing Redi-Earth® planting medium (Scotts Company, 14111 Scottslawn Road, Marysville, Ohio 43041) comprising spaghnum peat moss, vermiculite, wetting agent and starter nutrients were treated with postemergence applications of test chemicals formulated in the same manner. Plants ranged in height from 2 to 18 cm for postemergence treatments (1- to 4-leaf stage). Treated plants and controls were maintained in a greenhouse for 14 to 21 days, after which time all species were compared to controls and visually evaluated. Plant response ratings, summarized in Table E, are based on a scale of 0 to 100 where 0 is no effect and 100 is complete control. A dash (-) response means no test result.

waterhemp = format: in vivo, Amaranthus rudis
Description: as §1, §2

[1] = system: waterhemp_RES2 (ALS & HPPD resistant common waterhemp); format: in vivo, Amaranthus rudis
Description: as §1, §2

soybean = format: in vivo, Glycine max
Description: as §1, §2

Brazilian crabgrass = format: in vivo, Digitaria horizontalis
Description: as §1, §2

[2] = Postemergence, 31 g ai/ha, scale 0 to 100
[3] = Postemergence, 62 g ai/ha, scale 0 to 100
[4] = Postemergence, 125 g ai/ha, scale 0 to 100
[5] = Postemergence, 250 g ai/ha, scale 0 to 100
[6] = postemergence, 16 g ai/ha, scale 0 to 100, 0 no effect, 100 complete control
[7] = postemergence, 8 g ai/ha, scale 0 to 100, 0 no effect, 100 complete control

Fc1cnc(Oc2ccccc2-n2cc(Br)cn2)nc1 [Compound 10, 2-[2-(4-bromo-1H-pyrazol-1-yl)phenoxy]-5-fluoropyrimidine]
pest or weed control at 31 g/ha (fall panicum; Panicum dichotomiflorum, post-emergence, Postemergence, 31 g ai/ha, scale 0 to 100, read-out: Plant response rating, Panicum, Fall): 0%
pest or weed control at 62 g/ha (fall panicum; Panicum dichotomiflorum, post-emergence, Postemergence, 62 g ai/ha, scale 0 to 100, read-out: Plant response rating, Panicum, Fall): 0%
pest or weed control at 125 g/ha (fall panicum; Panicum dichotomiflorum, post-emergence, Postemergence, 125 g ai/ha, scale 0 to 100, read-out: Plant response rating, Panicum, Fall): 0%
pest or weed control at 250 g/ha (fall panicum; Panicum dichotomiflorum, post-emergence, Postemergence, 250 g ai/ha, scale 0 to 100, read-out: Plant response rating, Panicum, Fall): 0%
pest or weed control at 16 g/ha (fall panicum; Panicum dichotomiflorum, post-emergence, postemergence, 16 g ai/ha, scale 0 to 100, 0 no effect, 100 complete control, read-out: Plant response rating, Panicum, Fall): 0%
pest or weed control at 31 g/ha (waterhemp; Amaranthus tuberculatus, post-emergence, Postemergence, 31 g ai/ha, scale 0 to 100, read-out: Plant response rating, Waterhemp): 80%
pest or weed control at 62 g/ha (waterhemp; Amaranthus tuberculatus, post-emergence, Postemergence, 62 g ai/ha, scale 0 to 100, read-out: Plant response rating, Waterhemp): 85%
pest or weed control at 125 g/ha (waterhemp; Amaranthus tuberculatus, post-emergence, Postemergence, 125 g ai/ha, scale 0 to 100, read-out: Plant response rating, Waterhemp): 95%
pest or weed control at 250 g/ha (waterhemp; Amaranthus tuberculatus, post-emergence, Postemergence, 250 g ai/ha, scale 0 to 100, read-out: Plant response rating, Waterhemp): 95%
pest or weed control at 31 g/ha ([1]; Amaranthus tuberculatus, post-emergence, Postemergence, 31 g ai/ha, scale 0 to 100, read-out: Plant response rating, Waterhemp_RES2): 60%
pest or weed control at 62 g/ha ([1]; Amaranthus tuberculatus, post-emergence, Postemergence, 62 g ai/ha, scale 0 to 100, read-out: Plant response rating, Waterhemp_RES2): 75%
pest or weed control at 125 g/ha ([1]; Amaranthus tuberculatus, post-emergence, Postemergence, 125 g ai/ha, scale 0 to 100, read-out: Plant response rating, Waterhemp_RES2): 80%
pest or weed control at 250 g/ha ([1]; Amaranthus tuberculatus, post-emergence, Postemergence, 250 g ai/ha, scale 0 to 100, read-out: Plant response rating, Waterhemp_RES2): 90%
pest or weed control at 16 g/ha ([1]; Amaranthus tuberculatus, post-emergence, postemergence, 16 g ai/ha, scale 0 to 100, 0 no effect, 100 complete control, read-out: Plant response rating, Waterhemp_RES2): 50%
plant response (crop injury) rating, soybean, 0-100 scale at 31 g/ha (soybean; Glycine max, post-emergence, Postemergence, 31 g ai/ha, scale 0 to 100): 50%
plant response (crop injury) rating, soybean, 0-100 scale at 62 g/ha (soybean; Glycine max, post-emergence, Postemergence, 62 g ai/ha, scale 0 to 100): 75%
plant response (crop injury) rating, soybean, 0-100 scale at 125 g/ha (soybean; Glycine max, post-emergence, Postemergence, 125 g ai/ha, scale 0 to 100): 90%
plant response (crop injury) rating, soybean, 0-100 scale at 250 g/ha (soybean; Glycine max, post-emergence, Postemergence, 250 g ai/ha, scale 0 to 100): 95%
plant response (crop injury) rating, soybean, 0-100 scale at 16 g/ha (soybean; Glycine max, post-emergence, postemergence, 16 g ai/ha, scale 0 to 100, 0 no effect, 100 complete control): 30%
pest or weed control at 31 g/ha (Brazilian crabgrass; Digitaria horizontalis, post-emergence, Postemergence, 31 g ai/ha, scale 0 to 100, read-out: Plant response rating, Crabgrass, Brazil): 0%
pest or weed control at 62 g/ha (Brazilian crabgrass; Digitaria horizontalis, post-emergence, Postemergence, 62 g ai/ha, scale 0 to 100, read-out: Plant response rating, Crabgrass, Brazil): 0%
pest or weed control at 125 g/ha (Brazilian crabgrass; Digitaria horizontalis, post-emergence, Postemergence, 125 g ai/ha, scale 0 to 100, read-out: Plant response rating, Crabgrass, Brazil): 0%
pest or weed control at 250 g/ha (Brazilian crabgrass; Digitaria horizontalis, post-emergence, Postemergence, 250 g ai/ha, scale 0 to 100, read-out: Plant response rating, Crabgrass, Brazil): 5%
pest or weed control at 16 g/ha (Brazilian crabgrass; Digitaria horizontalis, post-emergence, postemergence, 16 g ai/ha, scale 0 to 100, 0 no effect, 100 complete control, read-out: Plant response rating, Crabgrass, Brazil): 0%

FC(F)(F)c1cnn(-c2ccccc2Oc2ncc(Cl)cn2)c1 [Compound 16]
Plant response rating, Panicum, Fall (fall panicum; [2]): 0
Plant response rating, Panicum, Fall (fall panicum; [3]): 10
Plant response rating, Panicum, Fall (fall panicum; [4]): 20
Plant response rating, Panicum, Fall (fall panicum; [5]): 25
Plant response rating, Panicum, Fall (fall panicum; [6]): 0
Plant response rating, Waterhemp (waterhemp; [2]): 60
Plant response rating, Waterhemp (waterhemp; [3]): 85
Plant response rating, Waterhemp (waterhemp; [4]): 90
Plant response rating, Waterhemp (waterhemp; [5]): 90
Plant response rating, Waterhemp (waterhemp; [6]): 60
Plant response rating, Waterhemp_RES2 [1, 2]: 50
Plant response rating, Waterhemp_RES2 [1, 3]: 60
Plant response rating, Waterhemp_RES2 [1, 4]: 70
Plant response rating, Waterhemp_RES2 [1, 5]: 85
Plant response rating, Waterhemp_RES2 [1, 6]: 25
Plant response rating, Soybean (soybean; [2]): 30
Plant response rating, Soybean (soybean; [3]): 80
Plant response rating, Soybean (soybean; [4]): 95
Plant response rating, Soybean (soybean; [5]): 95
Plant response rating, Soybean (soybean; [6]): 15
Plant response rating, Crabgrass, Brazil (Brazilian crabgrass; [2]): 0
Plant response rating, Crabgrass, Brazil (Brazilian crabgrass; [3]): 10
Plant response rating, Crabgrass, Brazil (Brazilian crabgrass; [4]): 30
Plant response rating, Crabgrass, Brazil (Brazilian crabgrass; [5]): 40
Plant response rating, Crabgrass, Brazil (Brazilian crabgrass; [6]): 0

Clc1cnc(Oc2cccc(Br)c2-n2cc(Br)cn2)nc1 [Compound 65]
Plant response rating, Panicum, Fall (fall panicum; [2]): 5
Plant response rating, Panicum, Fall (fall panicum; [3]): 0
Plant response rating, Panicum, Fall (fall panicum; [4]): 15
Plant response rating, Panicum, Fall (fall panicum; [7]): 0
Plant response rating, Panicum, Fall (fall panicum; [6]): 0
Plant response rating, Waterhemp (waterhemp; [2]): 70
Plant response rating, Waterhemp (waterhemp; [3]): 75
Plant response rating, Waterhemp (waterhemp; [4]): 95
Plant response rating, Waterhemp (waterhemp; [7]): 60
Plant response rating, Waterhemp (waterhemp; [6]): 50
Plant response rating, Waterhemp_RES2 [1, 2]: 90
Plant response rating, Waterhemp_RES2 [1, 3]: 95
Plant response rating, Waterhemp_RES2 [1, 4]: 98
Plant response rating, Waterhemp_RES2 [1, 6]: 80
Plant response rating, Soybean (soybean; [2]): 20
Plant response rating, Soybean (soybean; [3]): 50
Plant response rating, Soybean (soybean; [4]): 98
Plant response rating, Soybean (soybean; [7]): 15
Plant response rating, Soybean (soybean; [6]): 20
Plant response rating, Crabgrass, Brazil (Brazilian crabgrass; [2]): 10
Plant response rating, Crabgrass, Brazil (Brazilian crabgrass; [3]): 10
Plant response rating, Crabgrass, Brazil (Brazilian crabgrass; [4]): 15
Plant response rating, Crabgrass, Brazil (Brazilian crabgrass; [7]): 0
Plant response rating, Crabgrass, Brazil (Brazilian crabgrass; [6]): 0

Source: patent US9695155B2, “Herbicidal substituted pyrimidinyloxy benzene compounds” (E. I. DU PONT DE NEMOURS AND COMPANY, priority 2013, dated 2017)
